The source of these data is patent publication US5858684A, “Method of screening calcium receptor-active molecules” (priority 1995, dated 1999).

pEC50: −log10 of the molar value. Entries after “also recorded” stand apart in the source; their conditions may differ.

The target of one experiment is T1, C-cell calcium receptor (Rattus norvegicus, UniProt P48442).
T1 sequence (P48442 20-1079): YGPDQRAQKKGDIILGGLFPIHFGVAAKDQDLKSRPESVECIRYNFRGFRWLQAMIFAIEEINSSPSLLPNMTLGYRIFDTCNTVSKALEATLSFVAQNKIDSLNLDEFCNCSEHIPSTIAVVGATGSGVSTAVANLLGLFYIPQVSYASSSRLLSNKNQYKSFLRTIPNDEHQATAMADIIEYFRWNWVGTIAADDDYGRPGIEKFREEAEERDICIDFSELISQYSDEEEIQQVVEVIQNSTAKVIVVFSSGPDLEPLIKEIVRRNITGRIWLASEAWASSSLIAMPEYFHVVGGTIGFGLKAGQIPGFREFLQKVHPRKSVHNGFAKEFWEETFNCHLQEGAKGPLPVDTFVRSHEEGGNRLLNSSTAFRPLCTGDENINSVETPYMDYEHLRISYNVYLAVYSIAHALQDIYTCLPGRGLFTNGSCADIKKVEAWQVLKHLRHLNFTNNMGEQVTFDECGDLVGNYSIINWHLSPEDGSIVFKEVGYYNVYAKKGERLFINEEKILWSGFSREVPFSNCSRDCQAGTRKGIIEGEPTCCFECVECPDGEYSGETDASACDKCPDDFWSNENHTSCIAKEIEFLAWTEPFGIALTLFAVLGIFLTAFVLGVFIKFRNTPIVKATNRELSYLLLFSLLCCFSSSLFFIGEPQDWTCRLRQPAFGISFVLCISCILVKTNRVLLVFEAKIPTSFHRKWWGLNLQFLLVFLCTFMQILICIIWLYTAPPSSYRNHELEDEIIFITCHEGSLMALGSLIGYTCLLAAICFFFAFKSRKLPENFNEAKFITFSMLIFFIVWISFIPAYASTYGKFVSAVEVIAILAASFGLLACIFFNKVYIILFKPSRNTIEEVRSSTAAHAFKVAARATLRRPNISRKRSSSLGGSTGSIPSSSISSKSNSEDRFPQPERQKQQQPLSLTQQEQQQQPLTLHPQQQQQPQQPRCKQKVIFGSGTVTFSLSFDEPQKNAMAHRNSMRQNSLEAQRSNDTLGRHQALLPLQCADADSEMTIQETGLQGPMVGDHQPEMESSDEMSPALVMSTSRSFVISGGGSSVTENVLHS
The class given is cell-based. Also noted: Neoplastic C-cells derived from a rat medullary thyroid carcinoma (rMTC 6-23); host or cells: rMTC 6-23.

In experiment [1] the target is T2, bovine parathyroid cell calcium receptor (BoPCaR 1) (Bos taurus, UniProt P35384).
T2 construct: Xenopus oocytes were injected with BoPCaR 1, the 5.3 Kb cDNA encoding a bovine parathyroid cell calcium receptor; expressed in transfected cells; host or cells: Xenopus laevis oocytes injected with cRNA/cDNA of BoPCaR 1
T2 sequence (P35384 20-1085): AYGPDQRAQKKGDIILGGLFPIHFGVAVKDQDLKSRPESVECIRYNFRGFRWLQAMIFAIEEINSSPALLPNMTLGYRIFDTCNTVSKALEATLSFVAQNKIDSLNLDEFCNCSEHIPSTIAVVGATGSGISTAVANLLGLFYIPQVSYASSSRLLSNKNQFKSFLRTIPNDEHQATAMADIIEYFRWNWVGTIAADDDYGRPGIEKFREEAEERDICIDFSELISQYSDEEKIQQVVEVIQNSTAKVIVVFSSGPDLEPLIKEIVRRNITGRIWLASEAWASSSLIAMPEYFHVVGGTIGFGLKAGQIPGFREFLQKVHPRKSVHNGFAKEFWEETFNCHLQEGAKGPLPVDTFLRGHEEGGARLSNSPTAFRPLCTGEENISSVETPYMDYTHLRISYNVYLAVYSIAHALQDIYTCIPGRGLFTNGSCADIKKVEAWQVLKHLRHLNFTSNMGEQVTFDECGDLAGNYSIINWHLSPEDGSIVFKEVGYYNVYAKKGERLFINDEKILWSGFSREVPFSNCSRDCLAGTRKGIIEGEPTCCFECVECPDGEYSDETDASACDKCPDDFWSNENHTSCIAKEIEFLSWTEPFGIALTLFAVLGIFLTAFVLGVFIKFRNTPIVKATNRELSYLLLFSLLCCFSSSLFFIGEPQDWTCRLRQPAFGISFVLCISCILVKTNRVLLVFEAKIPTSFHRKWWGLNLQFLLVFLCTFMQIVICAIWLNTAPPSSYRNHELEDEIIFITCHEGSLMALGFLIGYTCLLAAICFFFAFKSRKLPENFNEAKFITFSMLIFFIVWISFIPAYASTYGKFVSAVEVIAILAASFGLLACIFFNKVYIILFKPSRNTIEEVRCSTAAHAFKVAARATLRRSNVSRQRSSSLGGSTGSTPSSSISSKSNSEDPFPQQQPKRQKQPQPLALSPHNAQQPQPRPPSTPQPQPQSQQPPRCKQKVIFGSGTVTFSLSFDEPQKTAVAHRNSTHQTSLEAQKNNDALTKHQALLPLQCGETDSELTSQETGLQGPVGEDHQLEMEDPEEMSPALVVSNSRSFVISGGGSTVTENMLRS
The experiment is described as follows: Cl- current in Xenopus oocytes expressing BoPCaR 1. It counts as cell-based. Conditions: for Cl- current response in the absence of extracellular Ca2+: no extracellular Ca2+. Here is the method: Following incubation, an oocyte was placed into a 100-μl plastic chamber and superfused with MBS at a flow rate of 0.5 ml/min using a peristaltic pump. Test molecules or inorganic polycations were added by rapidly moving the tubing into different buffers. Recording and current-passing electrodes were constructed from thin-wall capillary tubing pulled to a resistance of 1-3 Mohms and filled with 3M KCl. […] Currents were recorded directly onto a strip chart recorder.
The techniques used to clone the parathyroid calcium receptor are briefly described in this example; a more complete description of the techniques is provided in preceding sections, which describe techniques which may be used to clone additional forms of the Ca^2+ -receptor from other cell types. Poly(A^+)-enriched mRNA was initially prepared from bovine parathyroid glands by extracting with guanidinium thiocyanate, centrifugation through CsCl and oligo(dT) cellulose chromatography. […] No such currents were elicited in control eggs injected with water.
These responses are mediated by the following series of biochemical events:
Xenopus oocytes were injected with BoPCaR 1, the 5.3 Kb cDNA encoding a bovine parathyroid cell calcium receptor as described in Example 25. After two to three days, Cl^- currents were examined in the oocytes using a two-electrode voltage clamp.
Xenopus oocytes were injected with BoPCaR 1 as described in Example 25. After two to three days, Cl^- currents were examined in the oocytes using two electrode voltage clamp.

[2] abbreviates: rMTC 6-23 cells, fura-2, inactive = no increase in cytosolic Ca2+ at 1-5 mM.

Source text for C-cell calcium receptor: To assess the effects of molecular polycations on C-cells, a neoplastic cell line, derived from a rat medullary thyroid carcinoma (rMTC 6-23 cells) was used.

Consider `NCCCNCCCCNCCCNCCCNCCCNC(=O)Cc1c[nH]c2ccccc12` [NPS 019], for which the “transient increase in [Ca2+]i” value at C-cell calcium receptor (10 μM, 0.5 mM [Ca2+]) is on record as “transient increase”. Further, in experiment [1] (1 mM extracellular Ca2+), the “Cl- current” value is “oscillatory increases”. In addition, in experiment [1], the “Cl- current response in the absence of extracellular Ca2+” value (shortened to “Cl- current response in the absence”) was “persisted”.

Take `COc1cccc([C@@H](C)NCCCc2ccccc2)c1` (single isomer, unassigned) [NPS R-467]: the “potentiation of response to submaximal extracellular Ca2+” value in experiment [1] is recorded as “potentiate the response”.

Usually pEC50 stands for the negative decadic logarithm of the EC50, by convention in mol/L. As for `COc1cccc([C@@H](C)NCCCc2ccccc2Cl)c1` [NPS R-568, (R)-(+)-N-[3-(2-chlorophenyl)propyl]-amethyl-α-3-methoxybenzylamine], the pEC50 at C-cell calcium receptor (setting [2]) is 5.72. Besides, in experiment [1], the “potentiation of response to submaximal extracellular Ca2+” value is reported as “potentiate the response; also recorded: potentiated the responses to submaximal concentrations” and the “Cl- current response in the absence” value was “abolished”.

For the molecule `NC[C@@H]1O[C@H](O[C@H]2[C@@H](O)[C@H](O[C@@H]3[C@@H](O)[C@H](N)C[C@H](N)[C@H]3O[C@H]3O[C@H](CN)[C@@H](O)[C@H](O)[C@H]3N)O[C@@H]2CO)[C@H](N)[C@@H](O)[C@@H]1O` [Neomycin], at C-cell calcium receptor, the “effect on basal [Ca2+]i” value is on record as “fails to affect basal or evoked increases; also recorded: without effect on basal”. For the same molecule, the “EC50 C-CELL (Table 6)” value on C-cell calcium receptor (setting [2]) was “inactive”. Further, in experiment [1], the “concentrations eliciting increases in Cl- current” value was 20 to 100 µM and the “Cl- current response in the absence” value is listed as “persists”. Moreover, the “large inward currents: effective concentration” value in experiment [1] (cRNA-injected oocytes) came out at 200 µM.
